15 molecules from patent publication US20210122730A1, “GLUCOCORTICOID RECEPTOR MODULATORS” (ORIC Pharmaceuticals, Inc., priority 2017, published 2021) can be followed below.

One series addresses T1, GR (Homo sapiens, UniProt P04150).
T1 construct: expressed in transfected cells; host or cells: CHO-K1
T1 sequence (P04150 1-777): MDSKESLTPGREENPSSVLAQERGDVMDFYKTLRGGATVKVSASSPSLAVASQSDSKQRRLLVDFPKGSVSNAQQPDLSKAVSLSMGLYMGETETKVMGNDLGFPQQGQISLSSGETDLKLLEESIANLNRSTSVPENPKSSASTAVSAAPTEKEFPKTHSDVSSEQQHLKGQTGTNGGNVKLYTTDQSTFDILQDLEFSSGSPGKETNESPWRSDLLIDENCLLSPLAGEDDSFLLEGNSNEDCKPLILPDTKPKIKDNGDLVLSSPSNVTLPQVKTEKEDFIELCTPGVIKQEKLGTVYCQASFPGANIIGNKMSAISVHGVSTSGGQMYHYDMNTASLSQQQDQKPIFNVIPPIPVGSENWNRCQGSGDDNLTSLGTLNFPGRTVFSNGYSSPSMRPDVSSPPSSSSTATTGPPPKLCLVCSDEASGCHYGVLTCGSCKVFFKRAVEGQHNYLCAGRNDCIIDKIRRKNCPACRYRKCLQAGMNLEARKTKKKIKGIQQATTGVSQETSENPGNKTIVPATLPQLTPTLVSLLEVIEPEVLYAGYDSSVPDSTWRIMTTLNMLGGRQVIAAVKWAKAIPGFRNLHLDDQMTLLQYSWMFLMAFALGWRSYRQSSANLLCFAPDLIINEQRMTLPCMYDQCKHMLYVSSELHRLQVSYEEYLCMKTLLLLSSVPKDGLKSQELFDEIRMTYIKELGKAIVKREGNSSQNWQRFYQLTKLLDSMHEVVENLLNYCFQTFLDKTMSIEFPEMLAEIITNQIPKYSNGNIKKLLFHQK
The series is described as follows: In Vitro GR Luciferase Reporter Assay (antagonist mode, CHO-K1-GR-MMTV-Luc reporter cells). The class given is cell-based. The settings on record: antagonist mode, 10 nM Dexamethasone. In a few lines:
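Antagonist mode: compounds (8 serial 1:5 dilutions) added to GR-MMTV-luciferase CHO-K1 reporter cells co-exposed to 10 nM dexamethasone final, in phenol red-free DMEM plus 10% CSS. After roughly 18-24 h at 37° C, OneGlo luminescence read and IC50 calculated.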
(Reporter assays use an easily measured gene product as a stand-in for the process of interest.)

The next series addresses T2, CYP2C8 (Homo sapiens, UniProt P10632).
T2 construct: Pooled human microsomes were obtained from Sekisui XenoTech, KS; tissue Sekisui XenoTech, KS; host or cells: pooled human liver microsomes
T2 sequence (P10632 1-490): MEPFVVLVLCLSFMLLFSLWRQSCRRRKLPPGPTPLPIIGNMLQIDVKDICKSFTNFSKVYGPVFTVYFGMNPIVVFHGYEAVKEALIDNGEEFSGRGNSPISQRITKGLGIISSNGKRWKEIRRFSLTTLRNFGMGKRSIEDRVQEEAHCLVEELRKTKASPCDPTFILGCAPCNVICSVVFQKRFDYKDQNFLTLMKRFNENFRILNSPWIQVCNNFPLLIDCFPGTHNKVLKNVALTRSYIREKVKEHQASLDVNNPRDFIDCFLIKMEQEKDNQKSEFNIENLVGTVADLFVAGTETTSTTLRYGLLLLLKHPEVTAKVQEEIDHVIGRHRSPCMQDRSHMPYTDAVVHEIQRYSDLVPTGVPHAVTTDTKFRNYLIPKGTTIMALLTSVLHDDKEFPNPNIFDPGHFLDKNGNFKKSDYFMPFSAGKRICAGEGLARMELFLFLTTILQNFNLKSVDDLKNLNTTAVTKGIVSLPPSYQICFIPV
Description: CYP Inhibition Assay (CYP2C8, human liver microsomes, paclitaxel substrate). Format: in vitro ADME. The settings on record: pH 7.4; pooled human liver microsomes 0.1 mg/mL, probe substrate paclitaxel. In a few lines: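 CYP2C8 activity read as 6α-hydroxypaclitaxel formation by LC-MS/MS, with % inhibition versus vehicle control. Reactions ran 5 min at 37° C, pH 7.4 phosphate buffer, 0.1 mg/mL pooled human liver microsomes, 1 mM NADPH, duplicate wells.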
On the technique in general: Liver microsomes are vesicles of endoplasmic reticulum, rich in cytochrome P450 enzymes.

In general, IC50 refers to the concentration that inhibits the measured activity by half. A higher IC50 goes with lower potency. The inhibition is the change of the read-out against control, counted positive when it falls. Take `O=C(c1ncc(C(F)(F)F)s1)[C@]12Cc3cnn(-c4ccc(F)cc4)c3C=C1CC[C@H](N(C1CC1)S(=O)(=O)c1ccc(Cl)cn1)C2` [Example 333, 5-chloro-N-cyclopropyl-N-((4aS,6S)-1-(4-fluorophenyl)-4a-(5-(trifluoromethyl)thiazole-2-carbonyl)-4,4a,5,6,7,8-hexahydro-1H-benzo[f]indazol-6-yl)pyridine-2-sulfonamide]: the 50% inhibitory concentration (IC50) against GR is at most 0.1 µM. On CYP2C8, this molecule yielded an inhibition at 5 min of at most 25%.
At GR, `O=C(c1cc(C(F)(F)F)ccn1)[C@]12Cc3cnn(-c4ccc(F)cc4)c3C=C1CC[C@H](N(C1CC1)S(=O)(=O)c1cncc(Cl)c1)C2` [Example 334, 5-chloro-N-cyclopropyl-N-((4aS,6S)-1-(4-fluorophenyl)-4a-(4-(trifluoromethyl)picolinoyl)-4,4a,5,6,7,8-hexahydro-1H-benzo[f]indazol-6-yl)pyridine-3-sulfonamide] displayed a half-inhibitory concentration (IC50) of at most 0.1 µM. This molecule came in with an inhibition at 5 min on CYP2C8 of 50 to 75%.
The matching figures for `Cn1cnc(S(=O)(=O)N(C2CC(F)(F)C2)[C@H]2CCC3=Cc4c(cnn4-c4ccc(F)cc4)C[C@]3(C(=O)c3cc(F)ccn3)C2)c1` [Example 335, N-(3,3-difluorocyclobutyl)-N-((4aS,6S)-1-(4-fluorophenyl)-4a-(4-fluoropicolinoyl)-4,4a,5,6,7,8-hexahydro-1H-benzo[f]indazol-6-yl)-1-methyl-1H-imidazole-4-sulfonamide]: at most 0.1 µM and at most 25%.
`Cn1ccc(S(=O)(=O)N(CC(F)F)[C@H]2CCC3=Cc4c(cnn4-c4ccc(F)cc4)C[C@]3(C(=O)c3ncc(C(F)(F)F)s3)C2)n1` [Example 337, N-(2,2-difluoroethyl)-N-((4aS,6S)-1-(4-fluorophenyl)-4a-(5-(trifluoromethyl)thiazole-2-carbonyl)-4,4a,5,6,7,8-hexahydro-1H-benzo[f]indazol-6-yl)-1-methyl-1H-pyrazole-3-sulfonamide]: the IC50 at GR was at most 0.1 µM. This molecule returned an inhibition at 5 min against CYP2C8 of 50 to 75%.
Turning to `Cn1ccc(S(=O)(=O)N(CC(F)F)[C@H]2CCC3=Cc4c(cnn4-c4ccc(F)cc4)C[C@]3(C(=O)c3cc(F)ccn3)C2)n1` [Example 338, N-(2,2-difluoroethyl)-N-((4aS,6S)-1-(4-fluorophenyl)-4a-(4-fluoropicolinoyl)-4,4a,5,6,7,8-hexahydro-1H-benzo[f]indazol-6-yl)-1-methyl-1H-pyrazole-3-sulfonamide], the IC50 on GR is at most 0.1 µM. Further, at CYP2C8, the inhibition at 5 min lay in the range of 75 to 90%.
The matching figures for `Cn1cnc(S(=O)(=O)N(C2CC(F)(F)C2)[C@H]2CCC3=Cc4c(cnn4-c4ccc(F)cc4)C[C@]3(C(=O)c3cc(Cl)ccn3)C2)c1` [Example 339, N-((4aS,6S)-4a-(4-chloropicolinoyl)-1-(4-fluorophenyl)-4,4a,5,6,7,8-hexahydro-1H-benzo[f]indazol-6-yl)-N-(3,3-difluorocyclobutyl)-1-methyl-1H-imidazole-4-sulfonamide]: at most 0.1 µM and 25 to 50%.
Regarding `O=C(c1cc(C(F)(F)F)ccn1)[C@]12Cc3cnn(-c4ccc(F)cc4)c3C=C1CC[C@H](N(CC(F)F)S(=O)(=O)c1ccc(Cl)nc1)C2` [Example 341, 6-chloro-N-(2,2-difluoroethyl)-N-((4aS,6S)-1-(4-fluorophenyl)-4a-(4-(trifluoromethyl)picolinoyl)-4,4a,5,6,7,8-hexahydro-1H-benzo[f]indazol-6-yl)pyridine-3-sulfonamide], on GR, the IC50 is at most 0.1 µM. On CYP2C8, the inhibition at 5 min was in the range of 25 to 50%.
Consider `CO[C@]1(C)C[C@H](N([C@H]2CCC3=Cc4c(cnn4-c4ccc(F)cc4)C[C@]3(C(=O)c3ncc(C(F)(F)F)s3)C2)S(=O)(=O)c2ccn(C)n2)C1` [Example 342, N-((4aS,6S)-1-(4-fluorophenyl)-4a-(5-(trifluoromethyl)thiazole-2-carbonyl)-4,4a,5,6,7,8-hexahydro-1H-benzo[f]indazol-6-yl)-N-((1s,3R)-3-methoxy-3-methylcyclobutyl)-1-methyl-1H-pyrazole-3-sulfonamide], for which the 50% inhibitory concentration (IC50) at GR was at most 0.1 µM. The molecule further came in with an inhibition at 5 min on CYP2C8 of 25 to 50%.
In turn, `C[C@]1(O)C[C@@H](N([C@H]2CCC3=Cc4c(cnn4-c4ccc(F)cc4)C[C@]3(C(=O)c3cc(Cl)ccn3)C2)S(=O)(=O)c2ccc(F)cc2)C1` [Example 344, N-((4aS,6S)-4a-(4-chloropicolinoyl)-1-(4-fluorophenyl)-4,4a,5,6,7,8-hexahydro-1H-benzo[f]indazol-6-yl)-4-fluoro-N-((1s,3R)-3-hydroxy-3-methylcyclobutyl)benzenesulfon-amide] showed an IC50 at GR of at most 0.1 µM. At CYP2C8, this molecule yielded an inhibition at 5 min of 25 to 50%.
Molecule `O=C(c1cc(F)ccn1)[C@]12Cc3cnn(-c4ccc(F)cc4)c3C=C1CC[C@H](N(C1CC(F)(F)C1)S(=O)(=O)c1ccc(Cl)nc1)C2` [Example 346, 6-chloro-N-(3,3-difluorocyclobutyl)-N-((4aS,6S)-1-(4-fluorophenyl)-4a-(4-fluoropicolinoyl)-4,4a,5,6,7,8-hexahydro-1H-benzo[f]indazol-6-yl)pyridine-3-sulfonamide] yielded a concentration for half-maximal inhibition (IC50) against GR of at most 0.1 µM. The same molecule had an inhibition at 5 min against CYP2C8 of 25 to 50%.
As to `Cn1cnc(S(=O)(=O)N(C2CC2)[C@H]2CCC3=Cc4c(cnn4-c4ccc(F)cc4)C[C@]3(C(=O)c3cc(F)ccn3)C2)n1` [Example 347, N-cyclopropyl-N-((4aS,6S)-1-(4-fluorophenyl)-4a-(4-fluoropicolinoyl)-4,4a,5,6,7,8-hexahydro-1H-benzo[f]indazol-6-yl)-1-methyl-1H-1,2,4-triazole-3-sulfonamide], the IC50 on GR is at most 0.1 µM. Further, the inhibition at 5 min at CYP2C8 was 25 to 50%.
In turn, `Cn1cnc(S(=O)(=O)N(C2CC2)[C@H]2CCC3=Cc4c(cnn4-c4ccc(F)cc4)C[C@]3(C(=O)c3cc(Cl)ccn3)C2)n1` [Example 348, N-((4aS,6S)-4a-(4-chloropicolinoyl)-1-(4-fluorophenyl)-4,4a,5,6,7,8-hexahydro-1H-benzo[f]indazol-6-yl)-N-cyclopropyl-1-methyl-1H-1,2,4-triazole-3-sulfonamide] yielded an IC50 against GR of at most 0.1 µM. In addition, at CYP2C8, the inhibition at 5 min lay in the range of 25 to 50%.
At GR, `Cn1ccc(S(=O)(=O)N(C2CC(F)(F)C2)[C@H]2CCC3=Cc4c(cnn4-c4ccc(F)cc4)C[C@]3(C(=O)c3cc(Cl)ccn3)C2)n1` [Example 349, N-((4aS,6S)-4a-(4-chloropicolinoyl)-1-(4-fluorophenyl)-4,4a,5,6,7,8-hexahydro-1H-benzo[f]indazol-6-yl)-N-(3,3-difluorocyclobutyl)-1-methyl-1H-pyrazole-3-sulfonamide] returned an IC50 of at most 0.1 µM. Further, the inhibition at 5 min at CYP2C8 is 25 to 50%.
At GR, `Cn1cc(S(=O)(=O)N(CC(F)F)[C@H]2CCC3=Cc4c(cnn4-c4ccc(F)cc4)C[C@]3(C(=O)c3ncc(C(F)(F)F)s3)C2)nn1` [Example 350, N-(2,2-difluoroethyl)-N-((4aS,6S)-1-(4-fluorophenyl)-4a-(5-(trifluoromethyl)thiazole-2-carbonyl)-4,4a,5,6,7,8-hexahydro-1H-benzo[f]indazol-6-yl)-1-methyl-1H-1,2,3-triazole-4-sulfonamide] returned an IC50 of at most 0.1 µM. The molecule also had an inhibition at 5 min against CYP2C8 of 25 to 50%.
The corresponding values for `Cn1cnc(S(=O)(=O)N(C2CC(F)(F)C2)[C@H]2CCC3=Cc4c(cnn4-c4ccc(F)cc4)C[C@]3(C(=O)c3cc(F)ccn3)C2)n1` [Example 354, N-(3,3-difluorocyclobutyl)-N-((4aS,6S)-1-(4-fluorophenyl)-4a-(4-fluoropicolinoyl)-4,4a,5,6,7,8-hexahydro-1H-benzo[f]indazol-6-yl)-1-methyl-1H-1,2,4-triazole-3-sulfonamide] are at most 0.1 µM and 25 to 50%.
